Results: PMC9927415, “Tyrosine Kinase Inhibitors Display Potent Activity against Cryptosporidium parvum” (Microbiology Spectrum, 2022)

Tests used:
Experiment in all cases: KINOMEscan competitive binding, whole panel
panel of 203 kinases [1] = molecular target: T1, panel of 203 kinases (Homo sapiens, UniProt P78368); conditions: 10 µM, n=1; kinase CSNK1G2; read-out: Percent inhibition CSNK1G2
T1 construct: purchased DiscoverX (KINOMEscan)
In short: (§1)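 Percentage inhibition reflects loss of kinase binding to solid-phase ATP-site probe ligands in the presence of compound. Kinases carry a T7 bacteriophage fusion.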

panel of 203 kinases [2] = molecular target: T2, panel of 203 kinases (Homo sapiens, UniProt P07333); conditions: 10 µM, n=1; kinase CSF1R; read-out: Percent inhibition CSF1R
T2 construct: purchased DiscoverX (KINOMEscan)
T2 sequence (P07333 20-972): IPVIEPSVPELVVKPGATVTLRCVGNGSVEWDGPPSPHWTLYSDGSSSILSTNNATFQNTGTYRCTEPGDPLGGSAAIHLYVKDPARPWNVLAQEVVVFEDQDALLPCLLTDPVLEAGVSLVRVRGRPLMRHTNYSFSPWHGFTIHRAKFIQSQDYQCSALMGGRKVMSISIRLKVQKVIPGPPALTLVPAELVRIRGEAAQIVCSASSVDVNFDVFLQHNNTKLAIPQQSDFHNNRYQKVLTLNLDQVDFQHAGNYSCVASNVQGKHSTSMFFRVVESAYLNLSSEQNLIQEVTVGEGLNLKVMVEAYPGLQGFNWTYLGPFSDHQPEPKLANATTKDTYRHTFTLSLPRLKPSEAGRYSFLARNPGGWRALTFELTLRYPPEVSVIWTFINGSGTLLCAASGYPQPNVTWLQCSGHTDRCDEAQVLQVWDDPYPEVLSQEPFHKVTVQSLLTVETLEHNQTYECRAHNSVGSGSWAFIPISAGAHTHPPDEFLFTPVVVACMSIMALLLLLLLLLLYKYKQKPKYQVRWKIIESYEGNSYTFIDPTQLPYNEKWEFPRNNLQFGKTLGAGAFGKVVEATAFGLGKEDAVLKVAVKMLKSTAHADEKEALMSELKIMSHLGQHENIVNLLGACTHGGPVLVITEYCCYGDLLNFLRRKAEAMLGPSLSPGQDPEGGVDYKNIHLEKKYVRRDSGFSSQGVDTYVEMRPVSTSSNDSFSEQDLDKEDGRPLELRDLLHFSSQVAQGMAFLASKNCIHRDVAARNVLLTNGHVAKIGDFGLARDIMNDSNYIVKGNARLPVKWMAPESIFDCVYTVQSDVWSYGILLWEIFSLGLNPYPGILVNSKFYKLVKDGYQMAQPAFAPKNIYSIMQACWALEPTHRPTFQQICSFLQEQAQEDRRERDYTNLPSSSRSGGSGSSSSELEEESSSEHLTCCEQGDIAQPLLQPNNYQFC
In short: as §1

panel of 203 kinases [3] = molecular target: T3, panel of 203 kinases (Homo sapiens, UniProt Q15759); conditions: 10 µM, n=1; kinase p38-beta; read-out: Percent inhibition p38-beta
T3 construct: purchased DiscoverX (KINOMEscan)
T3 sequence (Q15759 whole entry): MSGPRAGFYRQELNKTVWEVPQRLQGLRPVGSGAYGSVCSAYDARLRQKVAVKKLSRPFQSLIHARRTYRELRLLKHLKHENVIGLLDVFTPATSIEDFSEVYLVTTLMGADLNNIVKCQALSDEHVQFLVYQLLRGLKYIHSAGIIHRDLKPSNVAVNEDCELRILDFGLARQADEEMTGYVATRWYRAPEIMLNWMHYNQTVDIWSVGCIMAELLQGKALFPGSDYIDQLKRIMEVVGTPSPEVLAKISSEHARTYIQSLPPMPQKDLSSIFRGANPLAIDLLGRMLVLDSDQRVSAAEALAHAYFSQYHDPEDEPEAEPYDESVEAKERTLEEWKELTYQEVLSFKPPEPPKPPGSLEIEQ
In short: as §1

panel of 203 kinases [4] = molecular target: T4, panel of 203 kinases (Homo sapiens, UniProt Q14012); conditions: 10 µM, n=1; kinase CAMK1; read-out: Percent inhibition CAMK1
T4 construct: purchased DiscoverX (KINOMEscan)
In short: as §1

panel of 203 kinases [5] = molecular target: T5, panel of 203 kinases (Homo sapiens, UniProt P07332); conditions: 10 µM, n=1; kinase FES; read-out: Percent inhibition FES
T5 construct: purchased DiscoverX (KINOMEscan)
T5 sequence (P07332 whole entry): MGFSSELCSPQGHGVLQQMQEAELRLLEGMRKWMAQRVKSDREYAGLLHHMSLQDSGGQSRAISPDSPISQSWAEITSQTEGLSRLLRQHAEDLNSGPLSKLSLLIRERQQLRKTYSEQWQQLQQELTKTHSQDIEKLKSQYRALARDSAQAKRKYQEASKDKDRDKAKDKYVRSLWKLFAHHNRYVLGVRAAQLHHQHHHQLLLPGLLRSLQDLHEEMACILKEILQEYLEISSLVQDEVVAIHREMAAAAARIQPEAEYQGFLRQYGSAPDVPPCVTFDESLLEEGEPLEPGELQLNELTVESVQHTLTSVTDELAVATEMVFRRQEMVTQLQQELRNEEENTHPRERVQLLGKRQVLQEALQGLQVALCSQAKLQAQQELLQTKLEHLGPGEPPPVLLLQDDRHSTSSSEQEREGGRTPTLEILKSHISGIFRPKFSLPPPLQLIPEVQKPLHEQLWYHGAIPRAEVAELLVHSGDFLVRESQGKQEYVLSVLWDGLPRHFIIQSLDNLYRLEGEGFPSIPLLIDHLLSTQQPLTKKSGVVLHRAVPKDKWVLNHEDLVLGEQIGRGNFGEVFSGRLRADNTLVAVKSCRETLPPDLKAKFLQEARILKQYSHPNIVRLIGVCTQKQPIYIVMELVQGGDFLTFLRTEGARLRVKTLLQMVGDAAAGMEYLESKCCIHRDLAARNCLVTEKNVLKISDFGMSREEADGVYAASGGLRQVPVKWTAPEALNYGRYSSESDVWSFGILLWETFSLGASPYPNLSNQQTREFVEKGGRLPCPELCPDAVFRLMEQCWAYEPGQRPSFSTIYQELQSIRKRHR
In short: as §1

panel of 203 kinases [6] = molecular target: T6, panel of 203 kinases (Homo sapiens, UniProt Q13131); conditions: 10 µM, n=1; kinase AMPK-alpha1; read-out: Percent inhibition AMPK-alpha1
T6 construct: purchased DiscoverX (KINOMEscan)
T6 sequence (Q13131 whole entry): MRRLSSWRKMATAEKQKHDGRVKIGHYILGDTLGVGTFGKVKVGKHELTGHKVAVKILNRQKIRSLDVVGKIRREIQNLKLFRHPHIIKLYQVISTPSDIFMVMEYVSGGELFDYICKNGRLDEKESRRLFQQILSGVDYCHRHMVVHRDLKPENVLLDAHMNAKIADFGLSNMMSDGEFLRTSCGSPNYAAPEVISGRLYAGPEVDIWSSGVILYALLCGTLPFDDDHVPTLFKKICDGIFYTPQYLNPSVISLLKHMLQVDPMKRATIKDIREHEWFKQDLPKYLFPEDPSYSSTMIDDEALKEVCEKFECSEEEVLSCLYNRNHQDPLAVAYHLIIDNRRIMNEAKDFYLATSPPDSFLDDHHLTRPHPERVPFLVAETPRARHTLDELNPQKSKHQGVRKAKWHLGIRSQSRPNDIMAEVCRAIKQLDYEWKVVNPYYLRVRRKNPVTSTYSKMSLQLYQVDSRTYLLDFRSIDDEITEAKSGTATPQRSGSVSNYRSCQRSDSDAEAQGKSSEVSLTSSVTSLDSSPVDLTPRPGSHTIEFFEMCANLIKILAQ
In short: as §1

panel of 203 kinases [7] = molecular target: T7, panel of 203 kinases (Homo sapiens, UniProt Q8N5S9); conditions: 10 µM, n=1; kinase CAMKK1; read-out: Percent inhibition CAMKK1
T7 construct: purchased DiscoverX (KINOMEscan)
T7 sequence (Q8N5S9 whole entry): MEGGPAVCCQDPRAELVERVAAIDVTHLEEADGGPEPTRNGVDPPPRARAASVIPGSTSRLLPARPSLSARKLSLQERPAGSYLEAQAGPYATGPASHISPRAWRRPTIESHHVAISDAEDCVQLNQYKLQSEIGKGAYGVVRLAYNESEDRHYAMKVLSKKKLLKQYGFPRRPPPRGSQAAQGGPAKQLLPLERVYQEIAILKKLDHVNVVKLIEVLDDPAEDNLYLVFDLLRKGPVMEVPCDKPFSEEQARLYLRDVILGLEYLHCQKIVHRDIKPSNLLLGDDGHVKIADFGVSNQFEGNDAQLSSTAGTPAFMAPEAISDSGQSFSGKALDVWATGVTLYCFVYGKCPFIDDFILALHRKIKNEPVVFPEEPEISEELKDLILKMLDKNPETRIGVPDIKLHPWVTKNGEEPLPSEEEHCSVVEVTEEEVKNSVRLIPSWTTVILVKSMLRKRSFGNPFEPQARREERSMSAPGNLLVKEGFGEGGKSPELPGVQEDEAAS
In short: as §1

panel of 203 kinases [8] = molecular target: T8, panel of 203 kinases (Homo sapiens, UniProt P00519); conditions: 10 µM, n=1; kinase ABL1; read-out: Percent inhibition ABL1
T8 construct: purchased DiscoverX (KINOMEscan)
In short: as §1

panel of 203 kinases [9] = molecular target: T9, panel of 203 kinases (Homo sapiens, UniProt P42685); conditions: 10 µM, n=1; kinase FRK; read-out: Percent inhibition FRK
T9 construct: purchased DiscoverX (KINOMEscan)
In short: as §1

panel of 203 kinases [10] = molecular target: T10, panel of 203 kinases (Homo sapiens, UniProt P54760); conditions: 10 µM, n=1; kinase EPHB4; read-out: Percent inhibition EPHB4
T10 construct: purchased DiscoverX (KINOMEscan)
T10 sequence (P54760 16-987): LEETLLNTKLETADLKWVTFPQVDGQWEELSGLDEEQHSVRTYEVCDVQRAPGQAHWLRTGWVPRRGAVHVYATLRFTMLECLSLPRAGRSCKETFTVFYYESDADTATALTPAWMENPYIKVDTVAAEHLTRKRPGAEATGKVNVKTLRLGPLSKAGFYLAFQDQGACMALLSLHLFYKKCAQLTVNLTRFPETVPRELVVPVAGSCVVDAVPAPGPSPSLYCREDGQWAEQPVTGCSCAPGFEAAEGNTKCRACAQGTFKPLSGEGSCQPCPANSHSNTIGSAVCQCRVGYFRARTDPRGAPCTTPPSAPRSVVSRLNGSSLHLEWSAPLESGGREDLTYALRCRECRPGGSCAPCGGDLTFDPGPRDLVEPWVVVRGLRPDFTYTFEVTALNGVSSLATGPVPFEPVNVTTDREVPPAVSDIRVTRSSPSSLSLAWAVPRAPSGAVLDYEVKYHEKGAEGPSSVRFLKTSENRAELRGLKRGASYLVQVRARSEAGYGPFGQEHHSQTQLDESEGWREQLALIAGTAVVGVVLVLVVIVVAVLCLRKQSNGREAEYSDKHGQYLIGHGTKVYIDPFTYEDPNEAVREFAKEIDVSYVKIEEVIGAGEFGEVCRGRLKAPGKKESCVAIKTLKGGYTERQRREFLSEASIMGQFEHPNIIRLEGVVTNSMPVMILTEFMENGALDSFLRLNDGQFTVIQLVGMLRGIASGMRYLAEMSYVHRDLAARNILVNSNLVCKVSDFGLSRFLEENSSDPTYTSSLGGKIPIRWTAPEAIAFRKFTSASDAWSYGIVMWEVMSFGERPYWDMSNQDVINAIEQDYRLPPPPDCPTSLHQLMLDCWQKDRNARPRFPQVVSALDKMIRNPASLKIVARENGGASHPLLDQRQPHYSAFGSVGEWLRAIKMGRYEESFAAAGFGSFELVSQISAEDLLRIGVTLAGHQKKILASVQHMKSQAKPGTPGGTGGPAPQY
In short: as §1

panel of 203 kinases [11] = molecular target: T11, panel of 203 kinases (Homo sapiens, UniProt Q5VT25); conditions: 10 µM, n=1; kinase MRCKA; read-out: Percent inhibition MRCKA
T11 construct: purchased DiscoverX (KINOMEscan)
T11 sequence (Q5VT25 whole entry): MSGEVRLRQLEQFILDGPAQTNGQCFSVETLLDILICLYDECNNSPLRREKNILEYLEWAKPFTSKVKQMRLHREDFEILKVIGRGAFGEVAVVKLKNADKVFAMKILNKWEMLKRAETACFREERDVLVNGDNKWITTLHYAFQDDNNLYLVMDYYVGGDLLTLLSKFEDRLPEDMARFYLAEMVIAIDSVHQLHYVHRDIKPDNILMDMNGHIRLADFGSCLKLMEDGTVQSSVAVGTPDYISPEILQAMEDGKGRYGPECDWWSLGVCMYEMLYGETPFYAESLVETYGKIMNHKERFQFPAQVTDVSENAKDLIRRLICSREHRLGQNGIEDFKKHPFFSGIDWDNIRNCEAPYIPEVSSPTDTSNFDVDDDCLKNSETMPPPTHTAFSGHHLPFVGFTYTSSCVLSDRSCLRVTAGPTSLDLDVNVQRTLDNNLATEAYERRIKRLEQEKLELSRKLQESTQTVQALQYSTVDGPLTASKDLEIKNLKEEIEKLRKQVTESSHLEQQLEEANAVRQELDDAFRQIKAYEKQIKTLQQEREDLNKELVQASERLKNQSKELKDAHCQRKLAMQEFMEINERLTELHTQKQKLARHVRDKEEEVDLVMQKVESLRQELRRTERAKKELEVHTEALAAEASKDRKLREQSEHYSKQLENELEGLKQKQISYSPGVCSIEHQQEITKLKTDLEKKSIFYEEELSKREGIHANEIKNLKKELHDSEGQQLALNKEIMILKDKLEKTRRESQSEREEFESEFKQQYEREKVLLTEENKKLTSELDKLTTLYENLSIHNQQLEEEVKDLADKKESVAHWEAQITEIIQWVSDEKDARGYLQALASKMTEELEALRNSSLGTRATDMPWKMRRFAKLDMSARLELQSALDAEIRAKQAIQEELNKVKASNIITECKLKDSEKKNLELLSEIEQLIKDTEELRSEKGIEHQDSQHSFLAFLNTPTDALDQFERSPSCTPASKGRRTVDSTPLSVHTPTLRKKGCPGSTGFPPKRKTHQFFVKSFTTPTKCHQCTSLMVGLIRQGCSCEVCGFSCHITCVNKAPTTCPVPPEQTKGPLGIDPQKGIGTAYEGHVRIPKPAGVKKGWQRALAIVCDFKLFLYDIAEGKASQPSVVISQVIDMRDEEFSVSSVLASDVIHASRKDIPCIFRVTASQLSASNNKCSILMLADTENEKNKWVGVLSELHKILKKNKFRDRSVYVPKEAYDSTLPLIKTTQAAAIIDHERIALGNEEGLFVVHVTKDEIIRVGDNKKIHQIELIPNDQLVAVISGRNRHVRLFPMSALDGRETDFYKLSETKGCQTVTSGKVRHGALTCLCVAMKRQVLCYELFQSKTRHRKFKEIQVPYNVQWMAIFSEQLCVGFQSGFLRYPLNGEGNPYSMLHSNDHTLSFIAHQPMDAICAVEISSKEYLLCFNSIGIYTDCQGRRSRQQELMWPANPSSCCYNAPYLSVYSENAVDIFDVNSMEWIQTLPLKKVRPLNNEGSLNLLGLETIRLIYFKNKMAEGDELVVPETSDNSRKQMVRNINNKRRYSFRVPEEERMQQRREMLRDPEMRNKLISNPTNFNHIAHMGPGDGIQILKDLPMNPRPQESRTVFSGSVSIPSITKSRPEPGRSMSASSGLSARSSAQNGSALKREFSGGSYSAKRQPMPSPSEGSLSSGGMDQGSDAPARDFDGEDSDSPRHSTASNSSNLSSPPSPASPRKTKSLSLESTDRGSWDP
In short: as §1

panel of 203 kinases [12] = molecular target: T12, panel of 203 kinases (Homo sapiens, UniProt Q13557); conditions: 10 µM, n=1; kinase CAMK2D; read-out: Percent inhibition CAMK2D
T12 construct: purchased DiscoverX (KINOMEscan)
In short: as §1

Compound	inhibition at 10 µM (panel of 203 kinases [1])	inhibition at 10 µM (panel of 203 kinases [2])	inhibition at 10 µM (panel of 203 kinases [3])	inhibition at 10 µM (panel of 203 kinases [4])	inhibition at 10 µM (panel of 203 kinases [5])	inhibition at 10 µM (panel of 203 kinases [6])	inhibition at 10 µM (panel of 203 kinases [7])	inhibition at 10 µM (panel of 203 kinases [8])	inhibition at 10 µM (panel of 203 kinases [9])	inhibition at 10 µM (panel of 203 kinases [10])	inhibition at 10 µM (panel of 203 kinases [11])	inhibition at 10 µM (panel of 203 kinases [12])
Cc1ccc(O)cc1Nc1ccnc(Nc2cccc(C(N)=O)c2)n1 [Compound 3]	93.3%	98.9%	94.8%	0%	96.7%	0%	0%	99.7%	99.6%	100%	0%	0%
Cc1ccc(O)cc1N(C)c1ccnc(Nc2cccc(S(N)(=O)=O)c2)n1 [Compound 4]	75.8%	100%	100%	0%	100%	0%	0%	99.8%	99.5%	100%	87%	0%
CN1CCN(c2ccc(Nc3nccc(-c4cnn5ncccc45)n3)cc2C#N)CC1 [Compound 1]	88.3%	99.4%	0%	92.3%	66.7%	75.7%	99.2%	87.3%	91.8%	0%	0%	96.5%
Clc1ccc(Nc2ncc(-c3ccccc3)s2)cc1 [Compound 10]	0%	0%	0%	0%	0%	0%	0%	0%	0%	0%	0%	0%
Nc1ncc2c(-c3ccncc3)c[nH]c2n1 [Compound 11]	89.7%	0%	0%	0%	0%	0%	0%	0%	0%	0%	0%	0%
Fc1cccc(COc2ccc(Nc3ncnc4c3CN(CCN3CCOCC3)CC4)cc2Cl)c1 [Compound 6]	0%	0%	0%	0%	0%	0%	0%	0%	0%	0%	0%	0%
COc1ccc(Nc2nccc(-c3cnn4ncccc34)n2)cc1 [Compound 2]	93.6%	99.8%	0%	0%	84.9%	0%	97.4%	0%	0%	0%	0%	79.5%
C[C@@H](Oc1cc(-c2cnc3ccccn23)sc1C(N)=O)c1ccccc1Cl [Compound 8]	0%	0%	0%	0%	0%	0%	0%	0%	0%	0%	0%	0%
COc1cc(Nc2nccc(-c3sc(N)nc3-c3cccc(NC(=O)c4c(F)cccc4F)c3)n2)cc(OC)c1OC [Compound 7]	0%	100%	100%	91.5%	99.8%	98.4%	0%	99.7%	100%	91.9%	100%	0%
c1ccc(COc2cccc(-c3ccnc4[nH]ccc34)c2)cc1 [Compound 9]	0%	0%	0%	0%	0%	0%	0%	0%	0%	0%	0%	0%
